This note sets out measurements from US20210285004A1, “Bidirectional Constitutive Promoter and Uses, and Transfection Methods for B. Microti” (MJKS Research LLC, priority 2020, published 2021).

The subject of data set [1] is B. microti. Briefly: Promoter strength comparison by reporter gene analysis (RLU, luminometer). The data set is classed as cell-based, Babesia microti. To be noted: reporter gene construct, FIG. 5. The procedure:
In FIG. 5, the improved strength of the Babesia promoter (here: B. microti or “BM”) compared to a strong constitutive promoter (here: PBANKA DHFR of SEQ ID NO:2) is shown.
The strength of a Babesia-based promoter (for example, without limitation, the BM-CTQ41297 promoter of SEQ ID NO:1) and that of a strong constitutive promoter (here: PBANKA DHFR, SEQ ID NO:2) are determined and compared, representative results are shown in FIG. 5. A promoter (SEQ ID NO:1, from B. microti or “BM”) is compared to PBANKA-DHFR (known to be a strong constitutive promoter), a blank/negative control, and, as a further negative control, human EF1b promoter. The promoter constructs are prepared as described in examples 1 and 4, respectively. Relative Light Units (RLU) are measured by luminometer. […] Similarly the constitutive promoter human EF1b is outperformed by a Babesia-based promoter, including e.g. by the B. microti promoter (as shown in FIG. 5). As determined by reporter gene analysis, the Babesia promoter is at least about 5 to 6 times stronger compared to PBANKA-DHFR (a promoter derived from a rodent malaria parasite Plasmodium berghei with strong constitutive activity commonly used for the expression of reporter genes in various apicomplexan parasites), see results shown in FIG. 5.

The test system of data set [2] is B. microti. Put plainly: Transient transfection of B. microti with promoter constructs, reporter expression by fluorescence microscopy. The data set is classed as cell-based, Babesia microti. To be noted: two days after transfection, infected RBC from C57BL/6J mice. The procedure:
A transfection of parasites with a parasite promoter (here: B. microti & SEQ ID NO:1) is performed as follows. A schematic representation of the genomic location of the B. microti promoter of SEQ ID NO:1 (BM-CTQ41297 promoter) is shown in FIG. 1a. As shown in the figure, the promoter is flanked by the two different genes. The episomal constructs may be based on a standard cloning vector such as Bluescript (pBSK (+)) and modified for expression accordingly; the constructs used are shown schematically in FIG. 1b. As a negative control (B), B. microti parasites transfected with a blank vector without reporter gene insert (but with BM-CTQ41297 promoter and 3′UTR, compare SEQ ID NO: 35). […] Electroporation for both genes is performed as follows. […]
After electroporation, the parasites are immediately injected into C57BL/6J mice and after two days of transfection analyzed by fluorescence microscopy as follows: a drop of blood is collected in a 1.5 ml tube containing heparin from the tail of mice infected with transfected parasites. […] The transfected parasites are analyzed by fluorescence microscopy to check if transfected parasites express the reporter gene (here: GFP) using a fluorescence microscope, e.g. Axio Imager M2®, Zeiss®, Dublin, Calif.). The transfected parasites are reporter gene (e.g. here: GFP) positive as confirmed by fluorescence microscopy and shown in FIG. 1c, see C. […]

As to “PBANKA-DHFR: Strong constitutive DHFR promoter from Plasmodium berghei, SEQ ID NO:2, 2262 bp [reference compound]”, the “RLU (Relative Light Unit) values” with B. microti [1] is listed as “about 60 RLU”. Besides, the “reporter gene expression (GFP/mCherry fluorescence)” value in the data set on B. microti [2] is listed as “expression of GFP”.
